{
  "source": "paper PMC6401633",
  "about": "“Evidence for Effective Multiple K^+-Current Inhibitions by Tolvaptan, a Non-peptide Antagonist of Vasopressin V2 Receptor” (Frontiers in Pharmacology, 2019)",
  "molecular_target": "T1, large-conductance Ca2+-activated K+ (BKCa) channel (Rattus norvegicus, UniProt Q62976)",
  "T1 construct": "gene Kcnma1; native channel in inside-out membrane patches of GH3 cells",
  "T1 sequence (Q62976 whole entry)": "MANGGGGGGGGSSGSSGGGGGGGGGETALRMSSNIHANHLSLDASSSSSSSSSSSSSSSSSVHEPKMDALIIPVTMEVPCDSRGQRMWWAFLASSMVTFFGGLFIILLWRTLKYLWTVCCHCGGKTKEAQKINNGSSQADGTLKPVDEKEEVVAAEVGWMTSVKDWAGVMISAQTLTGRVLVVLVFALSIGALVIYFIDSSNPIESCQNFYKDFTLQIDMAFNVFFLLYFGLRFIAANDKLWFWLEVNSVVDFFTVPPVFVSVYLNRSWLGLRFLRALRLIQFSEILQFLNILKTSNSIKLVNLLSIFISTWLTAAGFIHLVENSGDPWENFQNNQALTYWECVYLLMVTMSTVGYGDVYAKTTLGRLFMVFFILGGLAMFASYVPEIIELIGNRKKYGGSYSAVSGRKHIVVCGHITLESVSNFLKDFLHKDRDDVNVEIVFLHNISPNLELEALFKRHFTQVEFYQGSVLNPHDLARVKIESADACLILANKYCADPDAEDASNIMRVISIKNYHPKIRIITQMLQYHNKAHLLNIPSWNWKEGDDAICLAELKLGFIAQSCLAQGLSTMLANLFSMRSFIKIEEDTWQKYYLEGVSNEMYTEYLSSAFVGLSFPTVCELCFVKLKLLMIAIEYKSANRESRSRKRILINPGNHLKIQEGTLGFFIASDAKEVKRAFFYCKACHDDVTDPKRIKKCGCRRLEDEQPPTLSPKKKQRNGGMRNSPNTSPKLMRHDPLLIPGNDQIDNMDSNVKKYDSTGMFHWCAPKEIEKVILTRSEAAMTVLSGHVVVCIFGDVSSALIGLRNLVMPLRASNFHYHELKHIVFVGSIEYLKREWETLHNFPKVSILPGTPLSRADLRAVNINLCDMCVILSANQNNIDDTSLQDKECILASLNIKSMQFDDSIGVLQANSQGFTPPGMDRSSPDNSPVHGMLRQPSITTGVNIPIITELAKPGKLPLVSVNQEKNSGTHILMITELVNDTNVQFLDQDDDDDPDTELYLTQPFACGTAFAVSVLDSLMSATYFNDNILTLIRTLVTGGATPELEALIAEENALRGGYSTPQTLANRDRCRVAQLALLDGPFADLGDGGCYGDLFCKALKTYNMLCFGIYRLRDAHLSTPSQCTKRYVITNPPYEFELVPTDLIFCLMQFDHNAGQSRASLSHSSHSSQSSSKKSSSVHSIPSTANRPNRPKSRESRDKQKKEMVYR",
  "assay": "single-channel patch clamp, inside-out; open probability […] to […] at […], no significant change at […]",
  "format": "cell-based",
  "data": [
    {"smiles": "Cc1ccccc1C(=O)Nc1ccc(C(=O)N2CCCC(O)c3cc(Cl)ccc32)c(C)c1", "note": "(stereo not shown) [TLV, N-[4-[(7-chloro-2,3,4,5-tetrahydro-5-hydroxy-1H-1-benzazepin-1-yl)carbonyl]-3-methylphenyl]-2-methylbenzamide]", "values": [
      {"measurement": "single-channel patch clamp, inside-out; open probability 0.0191 to 0.0143 at 30", "value": 30, "unit": "µM"}
    ]}
  ]
}
